Values joined by “and” are separate entries in the source; they are usually repeats but may differ in a detail not shown here. Equal values may be shown once. Read-outs that look alike come from different tables or passages of the source.
Key:
[1] = system: transferrin uptake (CME) in U2OS osteosarcoma cells; test: Clathrin-mediated endocytosis assay: transferrin (Tfn) uptake in U2OS cells; assay type: cell-based; conditions: for IC50 / inhibition at 5 µM / inhibition at 50 µM: Homo sapiens, U2OS; for inhibition at 5 µM: read-out: 2-point CME (% Inhibition) 5 µM; for inhibition at 50 µM: read-out: 2-point CME (% Inhibition) 50 µM
Procedure: Using our previously reported CME assay in U2OS cells, the ability of these compounds to block endocytosis was examined (Table 5 ).^[ [48], [49] ^]
CME was examined by a high‐throughput, quantitative assay for measuring transferrin (Tfn) uptake in U2OS osteosarcoma cells, based on methods described previously.^[ [48] ^]
Compounds were made up fresh from powder stock just prior to commencing the assay, and stock solutions were stored at −20 °C for several months.

[2] = target: T1, full length human Dynamin I (Homo sapiens, UniProt Q05193); test: Dynamin GTPase activity, Malachite Green phosphate detection assay; assay type: biochemical
T1 construct: full length human Dynamin I expressed in Sf21 insect cells; made in house; host or cells: Sf21 insect cells
T1 sequence (Q05193 1-864): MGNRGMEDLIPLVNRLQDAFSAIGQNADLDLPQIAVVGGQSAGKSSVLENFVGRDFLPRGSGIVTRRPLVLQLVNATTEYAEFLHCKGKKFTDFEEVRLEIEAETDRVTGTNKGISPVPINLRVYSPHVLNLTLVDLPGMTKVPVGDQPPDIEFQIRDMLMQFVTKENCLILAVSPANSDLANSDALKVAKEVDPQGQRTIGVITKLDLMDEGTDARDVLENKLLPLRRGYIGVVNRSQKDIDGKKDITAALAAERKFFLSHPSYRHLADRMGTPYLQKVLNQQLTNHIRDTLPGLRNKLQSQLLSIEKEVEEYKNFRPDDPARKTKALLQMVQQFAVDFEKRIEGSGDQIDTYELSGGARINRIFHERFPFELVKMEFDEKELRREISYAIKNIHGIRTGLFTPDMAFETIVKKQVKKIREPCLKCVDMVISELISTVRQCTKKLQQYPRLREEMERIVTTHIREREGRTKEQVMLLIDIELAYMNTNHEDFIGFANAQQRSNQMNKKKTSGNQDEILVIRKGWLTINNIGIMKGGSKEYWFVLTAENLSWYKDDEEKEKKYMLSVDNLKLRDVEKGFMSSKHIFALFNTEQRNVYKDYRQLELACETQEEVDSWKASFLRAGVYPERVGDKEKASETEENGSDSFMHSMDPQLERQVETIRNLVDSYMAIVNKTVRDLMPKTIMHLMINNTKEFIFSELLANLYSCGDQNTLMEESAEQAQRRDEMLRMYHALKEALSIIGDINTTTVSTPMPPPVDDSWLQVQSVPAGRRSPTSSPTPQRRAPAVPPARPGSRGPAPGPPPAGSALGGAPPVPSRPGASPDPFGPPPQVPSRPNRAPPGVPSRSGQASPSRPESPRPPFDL
Procedure: Dynamin GTPase activity was determined in vitro using the Malachite Green phosphate detection absorbance‐based assay within a 96‐well plate format as described previously. The enzyme source was full length human Dynamin I expressed in Sf21 insect cells and affinity‐purified on GST‐Amph2‐SH3 (rat Amphiphysin 2 (494–588)).^[ [56] ^]

[3] = Qualitative solubility in solvents (compound data sheets, Supporting Information); assay type: physicochemical; conditions: solvents in which the compound dissolves
[4] = target: T2, clathrin heavy chain NTD (amino acids 1–364) – amphiphysin 1 B/C domain protein–protein interaction (NTD‐PPI) (Homo sapiens, UniProt Q00610); test: ELISA-based clathrin inhibitor binding assay (NTD-PPI)
T2 construct: GST‐tagged clathrin heavy chain NTD (amino acids 1–364); made in house
T2 sequence (Q00610 1-364): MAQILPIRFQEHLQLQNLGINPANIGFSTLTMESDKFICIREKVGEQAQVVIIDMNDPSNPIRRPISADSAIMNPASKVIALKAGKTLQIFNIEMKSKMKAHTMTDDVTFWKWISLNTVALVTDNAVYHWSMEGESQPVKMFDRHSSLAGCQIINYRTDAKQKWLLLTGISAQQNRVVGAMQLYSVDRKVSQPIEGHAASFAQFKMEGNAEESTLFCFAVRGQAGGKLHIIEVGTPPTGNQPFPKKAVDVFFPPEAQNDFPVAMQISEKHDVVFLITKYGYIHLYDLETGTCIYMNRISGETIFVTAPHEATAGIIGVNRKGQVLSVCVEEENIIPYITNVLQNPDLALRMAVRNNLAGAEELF
Summary of the method: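 His6-tagged amphiphysin 1 B/C domain (aa 250–578) was coated on plates in 20 mM HEPES pH 7.4, 50 mM NaCl, 1 mM DTT; compounds were incubated 1 h at room temperature with GST-clathrin NTD (aa 1–364). Bound NTD was detected by HRP anti-GST and TMB absorbance, expressed as percent binding of DMSO control.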

[5] = Table 5, inhibition of transferrin‐red uptake in U2OS cells, '–'/NA = not active at 100 μM
[6] = Table 1, library 1, n = 1 unless noted (19: n = 2), '–' = not active at 150 μM, read-out: Dyn 1 IC50
[7] = Table 5, dynamin GTPase, n = 1 or n = 2 as footnoted, NA = not active at 100 μM, read-out: Dynamin 1 IC50
[8] = Table 1, library 1, ELISA, average of duplicate measurements (n=2), read-out: NTD‐PPI IC50
[9] = Table 4, library 4, ELISA, average of duplicate measurements (n = 2), read-out: NTD‐PPI IC50
[10] = Table 5, ELISA, read-out: NTD‐PPI IC50
[11] = Table 4, library 4, n = 1 or n = 2 as footnoted, '–' = not active at 100 μM, read-out: Dynamin 1 IC50
[12] = Table S1, average of duplicate measurements (n=2), read-out: NTD-PPI IC50
[13] = Table S1, preliminary (n=1) unless otherwise noted, NA = not active, includes IC50 > 150 μM, read-out: Dynamin 1 IC50

With `O=C1N=C(NS(=O)(=O)c2cccc3ccccc23)S/C1=C\c1cccc(O)c1` [compound 7, N‐[(5Z)‐5‐(3‐hydroxybenzylidene)‐4‐oxo‐4,5‐dihydro‐1,3‐thiazol‐2‐yl]naphthalene‐1‐sulfonamide] the IC50 [1, 5] was 25 ± 14.6 µM, the IC50 [2, 6] was > 150 µM and the IC50 [2, 7] was > 100 µM. For the same compound, the Solubility [3] was “DMSO, slightly soluble in acetone, ethyl acetate, methanol and ethanol”.
With `O=C1N=C(NS(=O)(=O)c2cccc3ccccc23)S/C1=C\c1ccc(C(=O)O)cc1` [compound 9, 4‐[(Z)‐{2‐[(naphthalen‐1‐ylsulfonyl)amino]‐4‐oxo‐1,3‐thiazol‐5(4H)‐ylidene}methyl]benzoic acid] the IC50 [2, 6] was > 150 µM, the IC50 [4, 8] was 7.4 µM and the Solubility [3] was “DMSO, slightly soluble in acetone, ethyl acetate, ethanol and methanol”.
For `O=C1N=C(NS(=O)(=O)c2cccc3ccccc23)S/C1=C\c1cccc(C(=O)O)c1` [compound 10, (Z)‐3‐((2‐(naphthalene‐1‐sulfonamido)‐4‐oxothiazol‐5(4 H)‐ylidene)methyl)benzoic acid], the IC50 [2, 6] was > 150 µM, the IC50 [4, 8] was 5.3 µM and the Solubility [3] was “DMSO”.
In the case of `O=C1N=C(NS(=O)(=O)c2cccc3ccccc23)S/C1=C\c1cccc([N+](=O)[O-])c1` [compound 14, (Z)‐N‐(5‐(3‐nitrobenzylidene)‐4‐oxo‐4,5‐dihydrothiazol‐2‐yl)naphthalene‐1‐sulfonamide], the IC50 [1, 5] is reported as 34.4 ± 13.7 µM, the IC50 [2, 6] is reported as > 150 µM and the IC50 [2, 7] is reported as > 100 µM. For the same compound, the Solubility [3] was “DMSO, slightly soluble in acetone, ethanol and methanol”.
With `O=C1N=C(NS(=O)(=O)c2cccc3ccccc23)S/C1=C\c1ccc[nH]1` [compound 47, (Z)‐N‐(5‐((1H‐pyrrol‐2‐yl)methylene)‐4‐oxo‐4,5‐dihydrothiazol‐2‐yl)naphthalene‐1‐sulfonamide] the IC50 [1, 5] was 27.2 ± 11.7 µM, the “fold less active (NTD‐PPI) than furan (48)” value ([4]; ELISA, C2 linked analogues) was 2 fold and the IC50 [4, 9] was 5.3 µM. For the same compound, the IC50 [4, 10] was 5.3 µM and the Solubility [3] was “DM SO slightly soluble in acetone an d methanol”.
With `O=C1N=C(NS(=O)(=O)c2cccc3ccccc23)S/C1=C\c1ccco1` [compound 48, (Z)‐N‐(5‐(furan‐2‐ylmethylene)‐4‐oxo‐4,5‐dihydrothiazol‐2‐yl)naphthalene‐1‐sulfonamide] the IC50 [1, 5] was ~96.6 µM, the IC50 ([1]; U2OS cells) was > 50 µM and the IC50 [4, 9] was 3.64 µM. The IC50 [4, 10] was 3.64 µM, the IC50 ([4]; read-out: NTD‐PPI IC50 (ELISA)) was 3.6 µM and the Solubility [3] was “DM SO, slig htly soluble in methanol”.
In the case of `O=C1N=C(NS(=O)(=O)c2cccc3ccccc23)S/C1=C\c1ccc2c(c1)OCO2` [compound 56, (Z)‐N‐(5‐(benzo[d][1,3]dioxol‐5‐ylmethylene)‐4‐oxo‐4,5‐dihydrothiazol‐2‐yl)naphthalene‐1‐sulfonamide], the IC50 [1, 5] is reported as 19.4 ± 10.5 µM, the “CME activity compared with Pitstop 2” value ([1]; U2OS cells, in words) is reported as “comparable” and the “CME inhibition relative to dihydrobenzofuran 57” value ([1]; U2OS cells, in words) is reported as “threefold increase”. The IC50 [2, 11] was > 100 µM, the “NTD‐PPI activity relative to 54” value ([4]; ELISA, in words) was “threefold less active” and the IC50 [4, 9] was 3.2 µM. For the same compound, the IC50 [4, 10] was 3.2 µM and the IC50 ([4]; read-out: NTD‐PPI IC50 (ELISA)) was < 5 µM and 4 µM.
`O=C1N=C(NS(=O)(=O)c2cccc3ccccc23)S/C1=C\c1ccc2[nH]ccc2c1` [compound 59, (Z)‐N‐(5‐((1H‐indol‐5‐yl)methylene)‐4‐oxo‐4,5‐dihydrothiazol‐2‐yl)naphthalene‐1‐sulfonamide] showed an inhibition at 5 µM [1] of 0%, an inhibition at 50 µM [1] of 83% and an IC50 [2, 11] of 83.8 ± 10.7 µM. For the same compound, the IC50 [4, 9] was 3.66 µM and the IC50 [4, 12] was 3.7 µM.
In the case of `O=C1N=C(NS(=O)(=O)c2cccc3ccccc23)S/C1=C\c1c[nH]c2ccccc12` [compound 60, (Z)‐N‐(5‐((1H‐indol‐3‐yl)methylene)‐4‐oxo‐4,5‐dihydrothiazol‐2‐yl)naphthalene‐1‐sulfonamide], the inhibition at 5 µM [1] is reported as 0%, the inhibition at 50 µM [1] is reported as 38% and the IC50 [2, 13] is reported as > 150 µM. It also gave an IC50 [4, 9] of 3.2 µM.
With `Cn1cc(/C=C2\SC(NS(=O)(=O)c3cccc4ccccc34)=NC2=O)c2ccccc21` [compound 61, (Z)‐N‐(5‐((1‐methyl‐1H‐indol‐3‐yl)methylene)‐4‐oxo‐4,5‐dihydrothiazol‐2‐yl)naphthalene‐1‐sulfonamide] the inhibition at 5 µM [1] was 9%, the inhibition at 50 µM [1] was 69% and the IC50 [2, 13] was > 150 µM. The IC50 [4, 9] was 3.05 µM and the IC50 ([4]; read-out: NTD‐PPI IC50 (ELISA)) was 3 µM.
In the case of `Cc1[nH]c2ccccc2c1/C=C1\SC(NS(=O)(=O)c2cccc3ccccc23)=NC1=O` [compound 62, (Z)‐N‐(5‐((2‐methyl‐1H‐indol‐3‐yl)methylene)‐4‐oxo‐4,5‐dihydrothiazol‐2‐yl)naphthalene‐1‐sulfonamide], the inhibition at 5 µM [1] is reported as 6%, the inhibition at 50 µM [1] is reported as 71% and the IC50 [2, 11] is reported as > 100 µM. The IC50 [2, 13] was > 150 µM, the IC50 [4, 9] was 2.37 µM and the IC50 ([4]; read-out: NTD‐PPI IC50 (ELISA)) was 2.4 µM.
For `Cc1ccc2[nH]cc(/C=C3\SC(NS(=O)(=O)c4cccc5ccccc45)=NC3=O)c2c1` [compound 63, (Z)‐N‐(5‐((5‐methyl‐1H‐indol‐3‐yl)methylene)‐4‐oxo‐4,5‐dihydrothiazol‐2‐yl)naphthalene‐1‐sulfonamide], the inhibition at 5 µM [1] was 6%, the inhibition at 50 µM [1] was 68% and the IC50 [2, 11] was > 100 µM. For the same compound, the IC50 [2, 13] was > 150 µM, the IC50 [4, 9] was 3.52 µM and the IC50 ([4]; read-out: NTD‐PPI IC50 (ELISA)) was 3.5 µM.
With `O=C1N=C(NS(=O)(=O)c2cccc3ccccc23)S/C1=C\c1c[nH]c2cc(Br)ccc12` [compound 64, (Z)‐N‐(5‐((6‐bromo‐1H‐indol‐3‐yl)methylene)‐4‐oxo‐4,5‐dihydrothiazol‐2‐yl)naphthalene‐1‐sulfonamide] the inhibition at 5 µM [1] was 17%, the inhibition at 50 µM [1] was 70% and the IC50 [2, 11] was > 100 µM. The IC50 [2, 13] was > 150 µM, the IC50 [4, 9] was 3.42 µM and the IC50 ([4]; read-out: NTD‐PPI IC50 (ELISA)) was 3.4 µM.
In the case of `O=C1N=C(NS(=O)(=O)c2cccc3ccccc23)S/C1=C\c1c[nH]c2ccc(Br)cc12` [compound 65, (Z)‐N‐(5‐((5‐bromo‐1H‐indol‐3‐yl)methylene)‐4‐oxo‐4,5‐dihydrothiazol‐2‐yl)naphthalene‐1‐sulfonamide], the inhibition at 5 µM [1] is reported as 0%, the inhibition at 50 µM [1] is reported as 64% and the IC50 [2, 11] is reported as > 100 µM. For the same compound, the IC50 [2, 13] was > 150 µM, the IC50 [4, 9] was 2.91 µM and the IC50 [4, 12] was 2.9 µM.
With `O=C1N=C(NS(=O)(=O)c2cccc3ccccc23)S/C1=C\c1cn(S(=O)(=O)c2ccccc2)c2ccccc12` [compound 68, (Z)‐N‐(4‐oxo‐5‐((1‐(phenylsulfonyl)‐1H‐indol‐3‐yl)methylene)‐4,5‐dihydrothiazol‐2‐yl)naphthalene‐1‐sulfonamide] the IC50 [1, 5] was > 100 µM, the inhibition at 5 µM [1] was 8% and the inhibition at 50 µM [1] was 59%. The IC50 [2, 11] was 99.8 ± 3.1 µM, the IC50 [2, 7] was 99.8 ± 3.1 µM and the IC50 [4, 9] was 27 µM. The IC50 [4, 10] was 27 µM.
